Structures are written as SMILES.

29 compounds from patent publication US20090018134A1, “Compounds - 945” (AstraZeneca AB, priority 2007, published 2009) can be followed below.

In one assay the target is T1, mTOR (Homo sapiens, UniProt P42345).
T1 construct: FLAG; made in house
T1 sequence (P42345 1362-2549): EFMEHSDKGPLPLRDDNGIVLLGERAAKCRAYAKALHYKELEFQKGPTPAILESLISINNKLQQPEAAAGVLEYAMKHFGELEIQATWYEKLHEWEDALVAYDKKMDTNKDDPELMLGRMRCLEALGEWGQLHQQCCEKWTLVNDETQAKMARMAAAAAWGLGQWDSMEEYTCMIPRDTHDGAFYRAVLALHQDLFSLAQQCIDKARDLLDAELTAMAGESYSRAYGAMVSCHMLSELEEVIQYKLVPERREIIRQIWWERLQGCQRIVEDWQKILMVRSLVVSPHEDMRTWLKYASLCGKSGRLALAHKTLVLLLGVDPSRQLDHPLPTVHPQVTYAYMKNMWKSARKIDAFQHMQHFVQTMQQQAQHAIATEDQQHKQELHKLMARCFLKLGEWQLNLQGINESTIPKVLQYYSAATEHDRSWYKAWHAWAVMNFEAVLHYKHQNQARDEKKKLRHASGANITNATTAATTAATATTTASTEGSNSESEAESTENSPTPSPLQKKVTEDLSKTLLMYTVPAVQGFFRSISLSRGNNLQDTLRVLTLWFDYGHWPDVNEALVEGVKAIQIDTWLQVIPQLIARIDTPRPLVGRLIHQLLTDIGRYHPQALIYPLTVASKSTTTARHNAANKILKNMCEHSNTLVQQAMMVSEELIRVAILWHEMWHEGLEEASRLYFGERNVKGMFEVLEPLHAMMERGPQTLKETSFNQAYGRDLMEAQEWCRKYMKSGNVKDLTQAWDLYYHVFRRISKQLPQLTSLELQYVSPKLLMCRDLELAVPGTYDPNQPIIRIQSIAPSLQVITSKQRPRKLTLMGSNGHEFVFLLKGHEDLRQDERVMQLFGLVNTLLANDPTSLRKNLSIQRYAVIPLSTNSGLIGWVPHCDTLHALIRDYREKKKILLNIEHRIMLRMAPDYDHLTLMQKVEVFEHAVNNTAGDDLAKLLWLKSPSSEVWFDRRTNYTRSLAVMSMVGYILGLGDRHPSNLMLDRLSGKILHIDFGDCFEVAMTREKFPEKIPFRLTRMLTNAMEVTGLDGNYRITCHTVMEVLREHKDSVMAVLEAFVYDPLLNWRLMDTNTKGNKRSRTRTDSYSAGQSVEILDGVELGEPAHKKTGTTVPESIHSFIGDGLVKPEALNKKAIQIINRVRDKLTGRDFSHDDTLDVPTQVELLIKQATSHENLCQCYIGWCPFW
Nature of the assay: In Vitro mTOR Kinase Assay (Echo), Test (a)(ii). Type of assay: biochemical. The following applies: read-out: mTOR Kinase Assay (Echo). In a few lines:
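AlphaScreen read-out: biotinylated substrate phosphorylation was detected with anti-p70 S6K (T389) 1A5 antibody, Protein A acceptor and streptavidin donor beads after overnight dark incubation at room temperature. Enzyme was FLAG-mTOR 1362-2549 from stable HEK293 cells.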
`CNC(=O)Nc1ccc(-c2nc(N3CCOC[C@@H]3C)cc(C3(S(=O)(=O)C4CC4)CC3)n2)cc1` [Example 3i, 1-[4-[4-(1-cyclopropylsulfonylcyclopropyl)-6-[(3S)-3-methylmorpholin-4-yl]pyrimidin-2-yl]phenyl]-3-methyl-urea]: the IC50 amounted to 0.932 nM.

As for `C[C@H]1COCCN1c1cc(C2(S(C)(=O)=O)CC2)nc(-c2ccc(NC(=O)Nc3ncns3)cc2)n1` [Example 2ae, 1-[4-[4-[(3S)-3-methylmorpholin-4-yl]-6-(1-methylsulfonylcyclopropyl)pyrimidin-2-yl]phenyl]-3-(1,2,4-thiadiazol-5-yl)urea], the IC50 was found to be 0.72 nM.

Take `C[C@H]1COCCN1c1cc(C2(S(C)(=O)=O)CC2)nc(-c2ccc(NC(=O)NCC(C)(C)CO)cc2)n1` [Example 2w, 3-(3-hydroxy-2,2-dimethylpropyl)-1-[4-[4-[(3S)-3-methylmorpholin-4-yl]-6-(1-methylsulfonylcyclopropyl)pyrimidin-2-yl]phenyl]urea]: the IC50 was determined as 68.5 nM.

Regarding `CCNC(=O)Nc1ccc(-c2nc(N3CCOCC3)cc(C3(S(C)(=O)=O)CC3)n2)cc1` [Example 12b, 3-ethyl-1-[4-[4-(1-methylsulfonylcyclopropyl)-6-morpholin-4-ylpyrimidin-2-yl]phenyl]urea], the IC50 came to 2.71 nM.

For the compound `CS(=O)(=O)C1(c2cc(N3CCOCC3)nc(-c3ccc(NC(=O)NCCO)cc3)n2)CC1` [Example 12d, 3-(2-hydroxyethyl)-1-[4-[4-(1-methylsulfonylcyclopropyl)-6-morpholin-4-ylpyrimidin-2-yl]phenyl]urea], the IC50 stood at 1.55 nM.

For the compound `C[C@H]1COCCN1c1cc(C2(S(=O)(=O)c3ccc(F)cc3)CC2)nc(-c2ccc(NC(=O)NC3CC3)cc2)n1` [Example 8b, 3-cyclopropyl-1-[4-[4-[1-(4-fluorophenyl)sulfonylcyclopropyl]-6-[(3S)-3-methylmorpholin-4-yl]pyrimidin-2-yl]phenyl]urea], the IC50 is 1.23 nM.

Turning to `C[C@H]1COCCN1c1cc(C2(S(=O)(=O)C3CC3)CC2)nc(-c2ccc(NC(=O)NC(C)(C)CO)cc2)n1` [Example 3k, 1-[4-[4-(1-cyclopropylsulfonylcyclopropyl)-6-[(3S)-3-methylmorpholin-4-yl]pyrimidin-2-yl]phenyl]-3-(1-hydroxy-2-methyl-propan-2-yl)urea], the IC50 stood at 2.27 nM.

`CNC(=O)Nc1ccc(-c2nc(N3CCOC[C@@H]3C)cc(C3(S(C)(=O)=O)CC3)n2)cc1` [Example 1a]: the IC50 came to 2.79 nM.

As for `C[C@H]1COCCN1c1cc(C2(S(C)(=O)=O)CCC2)nc(-c2ccc(NC(=O)Nc3ccc(C(F)(F)F)cc3)cc2)n1` [Example 5k, 1-[4-[4-[(3S)-3-methylmorpholin-4-yl]-6-(1-methylsulfonylcyclobutyl)pyrimidin-2-yl]phenyl]-3-[4-(trifluoromethyl)phenyl]urea], the IC50 was determined as 3.33 nM.

Staying with this assay, now noted: table of enzyme assay Test (a)(ii); read-out: Test (a)(ii) IC50.
With `CCCNC(=S)Nc1ccc(-c2nc(N3CCOC[C@@H]3C)cc(C3(S(C)(=O)=O)CC3)n2)cc1` [Example 37n, 1-[4-[4-[(3S)-3-methylmorpholin-4-yl]-6-(1-methylsulfonylcyclopropyl)pyri-midin-2-yl]phenyl]-3-propylthiourea], the IC50 came out at 39.3 nM.

Regarding `Cc1ccc(F)cc1S(=O)(=O)C1(c2cc(N3CCOC[C@@H]3C)nc(-c3ccc(NC(=O)NCC(F)F)cc3)n2)CC1` [Example 61d, 3-(2,2-difluoroethyl)-1-[4-[4-[1-(5-fluoro-2-methylphenyl)sulfonylcyclopropyl]-6-[(3S)-3-methylmorphohn-4-yl]pyrimidin-2-yl]phenyl]urea], the IC50 was found to be 43.8 nM.

Consider `CNC(=O)Nc1ccc(-c2nc(N3CCOC[C@@H]3C)cc(C3(S(=O)(=O)c4ccccc4C)CC3)n2)cc1` [Example 54, 3-Methyl-1-[4-[4-[(3S)-3-methylmorpholin-4-yl]-6-[1-(2-methylphenyl)sulfonylcyclopropyl]pyrimidin-2-yl]phenyl]urea], for which the IC50 is 2.17 nM.

In the case of `Cc1nn(C)cc1S(=O)(=O)C1(c2cc(N3CCOC[C@@H]3C)nc(-c3ccc(NC(=O)NC4CC4)cc3)n2)CC1` [Example 55a, 3-cyclopropyl-1-[4-[4-[1-(1,3-dimethylpyrazol-4-yl)sulfonylcyclopropyl]-6-[(3S)-3-methylmorpholin-4-yl]pyrimidin-2-yl]phenyl]urea], the IC50 came out at 21.3 nM.

With `CS(=O)(=O)C1(c2cc(N3CCOCC3)nc(-c3ccc(NC(=O)Nc4ncns4)cc3)n2)CC1` [Example 36s, 1-[4-[4-(1-methylsulfonylcyclopropyl)-6-morpholin-4-ylpyrimidin-2-yl]phenyl]-3-(1,2,4-thiadiazol-5-yl)urea], the IC50 amounted to 4.75 nM.

Regarding `C[C@H](CO)NC(=O)Nc1ccc(-c2nc(N3CCOC[C@@H]3C)cc(C3(S(=O)(=O)c4ccccc4)CCC3)n2)cc1` [Example 64q, 1-[4-[4-[1-(benzenesulfonyl)cyclobutyl]-6-[(3S)-3-methylmorpholin-4-yl]pyrimidin-2-yl]phenyl]-3-[(2R)-1-hydroxypropan-2-yl]urea], the IC50 is 4.67 nM.

On to `CCNC(=O)Nc1ccc(-c2nc(N3CCOC[C@@H]3C)cc(C3(S(=O)(=O)c4ccccc4C)CC3)n2)cc1` [Example 54e, 1-ethyl-3-[4-[4-[(3S)-3-methylmorpholin-4-yl]-6-[1-(2-methylphenyl)sulfonylcyclo-propyl]pyrimidin-2-yl]phenyl]urea], for which the IC50 came out at 7.62 nM.

In the case of `C[C@H]1COCCN1c1cc(C2(S(C)(=O)=O)CCCC2)nc(-c2cnc(NC(=O)Nc3cnn(C)c3)nc2)n1` [Example 14v, 1-[5-[4-[(3S)-3-methylmorpholin-4-yl]-6-(1-methylsulfonylcyclopentyl)pyri-midin-2-yl]pyrimidin-2-yl]-3-(1-methylpyrazol-4-yl)urea], the IC50 was determined as 82.3 nM.

Turning to `CNC(=O)Nc1ccc(-c2nc(N3CCOC[C@@H]3C)cc(C3(S(=O)(=O)c4ccc(F)c(F)c4)CC3)n2)cc1` [Example 64g, 1-[4-[4-[1-(3,4-difluorophenyl)sulfonylcyclopro-pyl]-6-[(3S)-3-methylmorpholin-4-yl]pyrimidin-2-yl]phenyl]-3-methylurea], the IC50 was 34.2 nM.

Turning to `C[C@H]1COCCN1c1cc(C2(S(=O)(=O)CCCOC(F)F)CC2)nc(-c2ccc(NC(=O)Nc3cnn(C)c3)cc2)n1` [Example 96d, 1-[4-[4-[1-[3-(difluoromethoxy)propylsulfonyl]cyclopropyl]-6-[(3S)-3-methylmorpholin-4-yl]pyrimidin-2-yl]phenyl]-3-(1-methylpyrazol-4-yl)urea], the IC50 amounted to 20.9 nM.

`C[C@H]1COCCN1c1cc(C2(S(=O)(=O)c3cccc(F)c3)CC2)nc(-c2ccc(NC(=O)NCC(F)F)cc2)n1` [Example 53d, 3-(2,2-difluoroethyl)-1-[4-[4-[1-(3-fluorophenyl)sulfonylcyclopro-pyl]-6-[(3S)-3-methylmorpholin-4-yl]pyrimidin-2-yl]phenyl]urea]: the IC50 is 3.1 nM.

`C[C@H]1COCCN1c1cc(C2(S(=O)(=O)c3ccc(F)c(Cl)c3)CC2)nc(-c2ccc(NC(=O)Nc3cnn(C)c3)cc2)n1` [Example 95g, 1-[4-[4-[1-(3-chloro-4-fluorophenyl)sulfonyl-cyclopropyl]-6-[(3S)-3-methylmorpholin-4-yl]pyrimidin-2-yl]phenyl]-3-(1-methylpyrazol-4-yl)urea]: the IC50 turned out to be 16.4 nM.

As for `O=C(Nc1ccc(-c2nc(N3CCOCC3)cc(C3(S(=O)(=O)C4CC4)CCCC3)n2)cc1)NC1CC1` [Example 13j, 3-cyclopropyl-1-[4-[4-(1-cyclopropylsulfonylcyclopentyl)-6-morpholin-4-ylpyrimidin-2-yl]phenyl]urea], the IC50 amounted to 17.8 nM.

Turning to `CN(C)C(=O)C1(c2cc(N3CCOCC3)nc(-c3ccc(NC(=O)NCCO)cc3)n2)CC1` [Example 34, 1-[2-[4-(2-Hydroxyethylcarbamoylamino)phenyl]-6-morpholin-4-ylpyrimidin-4-yl]-N,N-dimethylcyclopropane-1-carboxamide], the IC50 stood at 4.05 nM.

As for `C[C@H]1COCCN1c1cc(C2(S(=O)(=O)c3cc(F)cc(F)c3)CC2)nc(-c2ccc(NC(=O)Nc3ccccn3)cc2)n1` [Example 19b, 1-[4-[4-[1-(3,5-difluorophenyl)sulfonylcyclopro-pyl]-6-[(3S)-3-methylmorpholin-4-yl]pyrimidin-2-yl]phenyl]-3-pyridin-2-ylurea], the IC50 is 1.19 nM.

As for `C[C@H]1COCCN1c1cc(C2(S(=O)(=O)c3ccc(C(N)=O)cc3Cl)CC2)nc(-c2ccc(NC(=O)NCCO)cc2)n1` [Example 85d, 3-chloro-4-[1-[2-[4-(2-hydroxyethylcarbamoylamino)phenyl]-6-[(3S)-3-methylmorpholin-4-yl]pyrimidin-4-yl]cyclopropyl]sulfonylbenzamide], the IC50 was found to be 3.23 nM.

As to `CC(C)NC(=O)Nc1ccc(-c2nc(N3CCOC[C@@H]3C)cc(C3(S(=O)(=O)c4cc(F)cc(F)c4)CC3)n2)cc1` [Example 19d, 1-[4-[4-[1-(3,5-difluorophenyl)sulfonylcyclopro-pyl]-6-[(3S)-3-methylmorpholin-4-yl]pyrimidin-2-yl]phenyl]-3-propan-2-ylurea], the IC50 was found to be 3.18 nM.

`C[C@H]1COCCN1c1cc(C2(S(=O)(=O)c3ccc(C#N)cc3Cl)CC2)nc(-c2ccc(NC(=O)NC3CC3)cc2)n1` [Example 85g, 1-[4-[4-[1-(2-chloro-4-cyanophenyl)sulfonylcyclopropyl]-6-[(3S)-3-methylmorpholin-4-yl]pyrimidin-2-yl]phenyl]-3-cyclopropylurea]: the IC50 amounted to 25.9 nM.

Turning to `CCS(=O)(=O)C1(c2cc(N3CCOC[C@@H]3C)nc(-c3ccc(NC(=O)NCCO)cc3)n2)CCC1` [Example 87, 1-[4-[4-(1-Ethylsulfonylcyclobutyl)-6-[(3S)-3-methylmorpholin-4-yl]pyrimidin-2-yl]phenyl]-3-(2-hydroxyethyl)urea], the IC50 came out at 4.87 nM.

With `C[C@H]1COCCN1c1cc(C2(S(=O)(=O)CCCO)CC2)nc(-c2ccc(NC(=O)Nc3ccon3)cc2)n1` [Example 64ak, 1-[4-[4-[1-(3-hydroxypropylsulfonyl)cyclopro-pyl]-6-[(3S)-3-methylmorpholin-4-yl]pyrimidin-2-yl]phenyl]-3-(1,2-oxazol-3-yl)urea], the IC50 was found to be 1.61 nM.
